Experimental data: ChEMBL document CHEMBL1144788, “Insect growth regulatory effects of linear diterpenoids and derivatives from Baccharis thymifolia” (2008)

Tests used:
Tenebrio molitor [1] = test: Growth inhibition of topically dosed Tenebrio molitor larvae assessed as duration of pupal instar stage at 120 ug measured every 24 hrs for 60 days; assay type: functional
Tenebrio molitor [2] = test: Growth inhibition of topically dosed Tenebrio molitor larvae assessed as imaginal molt inhibition at 120 ug; assay type: functional

Row | SMILES | Activity (Tenebrio molitor [1]) | Inhibition (Tenebrio molitor [2])
1 | COC(=O)/C(=C/CCc1ccoc1)CC/C=C(\CC[C@H](O)C(C)(C)O)C(=O)OC | 12.1 days | –
2 | COC(=O)/C(=C/CC/C(=C\CCc1ccoc1)C(=O)OC)CCC=C(C)C | 7.4 days | 34.3%
3 | CC(C)=CCC/C(=C\CC/C(=C\CCC1=CCOC1=O)C(=O)O)C(=O)O | 5.09 days | 24.1%
4 | CC(C)=CCC/C(=C\CC/C(=C\CCc1ccoc1)C(=O)O)C(=O)O | 10.7 days | 33.6%
5 | CC(C)=CCC[C@](O)(CO)[C@H]1CC/C(=C\CCc2ccoc2)CO1 | 16.2 days | 14.4%
6 | CC(C)=CCC/C(=C/CC/C(=C\CCc1ccoc1)C(=O)O)C(=O)O | 4.7 days | –
7 | CC(C)=CCC/C(=C\CC/C(=C\CCc1ccoc1)CO)CO | 5.3 days | –
8 | COC(=O)/C(=C\CC/C(=C\CCc1ccoc1)C(=O)OC)CC[C@H](O)C(C)(C)O | 10 days | –
9 | COC(=O)/C(=C/CCc1ccoc1)CC/C=C1\CC[C@H](C(C)(C)O)OC1=O | 11.2 days | –
10 | COC(=O)/C(=C\CC/C(=C\CCc1ccoc1)C(=O)OC)CC[C@@H](O)C(C)(C)O | 11.2 days | –
11 | COC(=O)/C(=C/CCc1ccoc1)CC/C=C(\CC[C@@H](O)C(C)(C)O)C(=O)OC | 12 days | –
12 | COC(=O)/C(=C\CC/C(=C\CCc1ccoc1)C(=O)OC)CCC=C(C)C | 6 days | –
13 | CC(C)=CCC[C@@](O)(CO)[C@@H]1CC/C(=C\CCc2ccoc2)CO1 | 12 days | –
14 | CC(C)=CCC[C@](O)(CO)[C@H]1CC[C@@]2(CO1)OC2CCc1ccoc1 (single isomer, unassigned) | 9.9 days | 30.8%
15 | CC(C)=CCC[C@@]1(CO)OC1CC[C@@]1(CO)OC1CCc1ccoc1 (single isomer, unassigned) | 12.7 days | –
16 | CC(C)=CCC[C@@](O)(CO)[C@@H]1CC[C@]2(CO1)OC2CCc1ccoc1 (single isomer, unassigned) | 10.6 days | –
